From ChEMBL document CHEMBL5649166, “RIP3 induces apoptosis independent of pronecrotic kinase activity” (Mol Cell, 2014)

Columns and labels:
[1] = molecular target: High affinity nerve growth factor receptor (Homo sapiens) (UniProt P04629); assay: Inhibition of human TRKA using poly[Glu:Tyr] (4:1) as substrate at 1 uM in presence of 32P-ATP by Hotspot assay relative to control
[2] = molecular target: Mitogen-activated protein kinase kinase kinase 14 (Homo sapiens) (UniProt Q99558); assay: Inhibition of human NIK/MAP3K14 using at 1 uM in presence of 32P-ATP by Hotspot assay relative to control; values are per cent of control
Chain of Mitogen-activated protein kinase kinase kinase 14 (Homo sapiens) (Q99558 whole entry, looked up): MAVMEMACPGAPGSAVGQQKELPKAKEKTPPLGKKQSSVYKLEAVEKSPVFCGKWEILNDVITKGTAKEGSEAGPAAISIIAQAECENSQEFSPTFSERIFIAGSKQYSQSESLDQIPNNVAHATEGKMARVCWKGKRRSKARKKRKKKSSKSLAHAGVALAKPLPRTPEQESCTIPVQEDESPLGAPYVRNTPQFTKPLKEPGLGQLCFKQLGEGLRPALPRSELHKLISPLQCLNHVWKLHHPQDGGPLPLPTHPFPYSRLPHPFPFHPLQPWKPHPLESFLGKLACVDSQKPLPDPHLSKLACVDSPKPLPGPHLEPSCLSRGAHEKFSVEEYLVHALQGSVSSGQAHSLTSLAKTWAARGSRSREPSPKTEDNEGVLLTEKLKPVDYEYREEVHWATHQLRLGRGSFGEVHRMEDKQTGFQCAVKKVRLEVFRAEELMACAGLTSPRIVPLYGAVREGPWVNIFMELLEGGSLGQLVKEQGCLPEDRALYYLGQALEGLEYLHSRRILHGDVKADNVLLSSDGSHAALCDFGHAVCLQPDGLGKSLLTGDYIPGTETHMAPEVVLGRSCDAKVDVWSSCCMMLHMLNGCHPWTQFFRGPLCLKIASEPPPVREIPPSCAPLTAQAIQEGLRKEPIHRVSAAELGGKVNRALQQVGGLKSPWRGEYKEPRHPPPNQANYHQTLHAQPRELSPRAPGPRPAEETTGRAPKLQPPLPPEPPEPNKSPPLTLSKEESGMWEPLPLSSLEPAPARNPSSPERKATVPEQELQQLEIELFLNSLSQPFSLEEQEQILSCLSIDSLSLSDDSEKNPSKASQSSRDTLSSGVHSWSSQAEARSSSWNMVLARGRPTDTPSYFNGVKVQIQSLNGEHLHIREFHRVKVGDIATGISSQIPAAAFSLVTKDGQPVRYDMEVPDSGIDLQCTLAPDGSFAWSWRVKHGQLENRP

[3] = molecular target: Receptor-type tyrosine-protein kinase FLT3 (Homo sapiens) (UniProt P36888); assay: Inhibition of human FLT3 using EAIYAAPFAKKK as substrate at 1 uM in presence of 32P-ATP by Hotspot assay relative to control; values are per cent of control
Chain of Receptor-type tyrosine-protein kinase FLT3 (Homo sapiens) (P36888 whole entry): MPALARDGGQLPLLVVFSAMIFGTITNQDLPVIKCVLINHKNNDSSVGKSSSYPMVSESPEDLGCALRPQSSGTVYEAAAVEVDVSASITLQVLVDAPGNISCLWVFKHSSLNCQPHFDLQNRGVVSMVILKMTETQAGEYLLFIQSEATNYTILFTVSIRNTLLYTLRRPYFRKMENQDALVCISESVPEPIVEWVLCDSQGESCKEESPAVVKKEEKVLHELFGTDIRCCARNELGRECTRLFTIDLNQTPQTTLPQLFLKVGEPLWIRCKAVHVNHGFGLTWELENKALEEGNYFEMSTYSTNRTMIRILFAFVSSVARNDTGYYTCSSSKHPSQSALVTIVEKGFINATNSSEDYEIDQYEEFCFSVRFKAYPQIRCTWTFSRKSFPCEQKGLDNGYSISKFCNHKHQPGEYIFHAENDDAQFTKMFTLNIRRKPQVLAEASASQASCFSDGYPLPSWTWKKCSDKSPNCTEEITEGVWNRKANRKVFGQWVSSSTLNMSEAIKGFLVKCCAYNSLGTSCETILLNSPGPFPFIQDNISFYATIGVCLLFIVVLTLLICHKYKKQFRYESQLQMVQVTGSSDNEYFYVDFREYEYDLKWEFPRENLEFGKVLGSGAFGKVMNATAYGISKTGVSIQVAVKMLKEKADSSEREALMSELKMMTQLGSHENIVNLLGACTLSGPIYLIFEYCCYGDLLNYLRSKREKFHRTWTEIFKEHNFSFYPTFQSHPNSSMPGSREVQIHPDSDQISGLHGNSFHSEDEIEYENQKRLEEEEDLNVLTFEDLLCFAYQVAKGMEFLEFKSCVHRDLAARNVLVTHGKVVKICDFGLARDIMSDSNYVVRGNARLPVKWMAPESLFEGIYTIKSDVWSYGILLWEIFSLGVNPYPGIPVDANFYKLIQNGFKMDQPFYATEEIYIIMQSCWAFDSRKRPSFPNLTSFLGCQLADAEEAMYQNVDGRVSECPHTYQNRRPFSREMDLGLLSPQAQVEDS

[4] = molecular target: Calcium/calmodulin-dependent protein kinase type II subunit gamma (Homo sapiens) (UniProt Q13555); assay: Inhibition of human CAMK2g using KKLNRTLSFAEPG as substrate at 1 uM in presence of 32P-ATP by Hotspot assay relative to control; values are per cent of control
[5] = molecular target: Dual specificity protein kinase CLK1 (Homo sapiens) (UniProt P49759); assay: Inhibition of human CLK1 using myelin basic protein as substrate at 1 uM in presence of 32P-ATP by Hotspot assay relative to control; values are per cent of control
Chain of Dual specificity protein kinase CLK1 (Homo sapiens) (P49759 whole entry, looked up): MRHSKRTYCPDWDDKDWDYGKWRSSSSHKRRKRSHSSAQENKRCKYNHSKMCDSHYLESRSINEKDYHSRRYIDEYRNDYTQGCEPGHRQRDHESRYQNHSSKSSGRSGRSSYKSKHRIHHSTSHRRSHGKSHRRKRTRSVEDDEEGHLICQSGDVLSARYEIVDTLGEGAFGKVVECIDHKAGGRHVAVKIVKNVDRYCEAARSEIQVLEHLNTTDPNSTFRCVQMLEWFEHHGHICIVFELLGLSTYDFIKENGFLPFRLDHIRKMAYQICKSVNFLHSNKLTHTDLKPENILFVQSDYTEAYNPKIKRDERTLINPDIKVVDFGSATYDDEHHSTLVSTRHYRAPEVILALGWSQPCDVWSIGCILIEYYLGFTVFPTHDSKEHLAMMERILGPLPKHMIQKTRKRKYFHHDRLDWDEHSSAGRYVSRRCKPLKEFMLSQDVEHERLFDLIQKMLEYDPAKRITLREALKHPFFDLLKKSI

[6] = molecular target: Hepatocyte growth factor receptor (Homo sapiens) (UniProt P08581); assay: Inhibition of human c-MET using poly[Glu:Tyr] (4:1) as substrate at 1 uM in presence of 32P-ATP by Hotspot assay relative to control; values are per cent of control
Chain of Hepatocyte growth factor receptor (Homo sapiens) (P08581 whole entry): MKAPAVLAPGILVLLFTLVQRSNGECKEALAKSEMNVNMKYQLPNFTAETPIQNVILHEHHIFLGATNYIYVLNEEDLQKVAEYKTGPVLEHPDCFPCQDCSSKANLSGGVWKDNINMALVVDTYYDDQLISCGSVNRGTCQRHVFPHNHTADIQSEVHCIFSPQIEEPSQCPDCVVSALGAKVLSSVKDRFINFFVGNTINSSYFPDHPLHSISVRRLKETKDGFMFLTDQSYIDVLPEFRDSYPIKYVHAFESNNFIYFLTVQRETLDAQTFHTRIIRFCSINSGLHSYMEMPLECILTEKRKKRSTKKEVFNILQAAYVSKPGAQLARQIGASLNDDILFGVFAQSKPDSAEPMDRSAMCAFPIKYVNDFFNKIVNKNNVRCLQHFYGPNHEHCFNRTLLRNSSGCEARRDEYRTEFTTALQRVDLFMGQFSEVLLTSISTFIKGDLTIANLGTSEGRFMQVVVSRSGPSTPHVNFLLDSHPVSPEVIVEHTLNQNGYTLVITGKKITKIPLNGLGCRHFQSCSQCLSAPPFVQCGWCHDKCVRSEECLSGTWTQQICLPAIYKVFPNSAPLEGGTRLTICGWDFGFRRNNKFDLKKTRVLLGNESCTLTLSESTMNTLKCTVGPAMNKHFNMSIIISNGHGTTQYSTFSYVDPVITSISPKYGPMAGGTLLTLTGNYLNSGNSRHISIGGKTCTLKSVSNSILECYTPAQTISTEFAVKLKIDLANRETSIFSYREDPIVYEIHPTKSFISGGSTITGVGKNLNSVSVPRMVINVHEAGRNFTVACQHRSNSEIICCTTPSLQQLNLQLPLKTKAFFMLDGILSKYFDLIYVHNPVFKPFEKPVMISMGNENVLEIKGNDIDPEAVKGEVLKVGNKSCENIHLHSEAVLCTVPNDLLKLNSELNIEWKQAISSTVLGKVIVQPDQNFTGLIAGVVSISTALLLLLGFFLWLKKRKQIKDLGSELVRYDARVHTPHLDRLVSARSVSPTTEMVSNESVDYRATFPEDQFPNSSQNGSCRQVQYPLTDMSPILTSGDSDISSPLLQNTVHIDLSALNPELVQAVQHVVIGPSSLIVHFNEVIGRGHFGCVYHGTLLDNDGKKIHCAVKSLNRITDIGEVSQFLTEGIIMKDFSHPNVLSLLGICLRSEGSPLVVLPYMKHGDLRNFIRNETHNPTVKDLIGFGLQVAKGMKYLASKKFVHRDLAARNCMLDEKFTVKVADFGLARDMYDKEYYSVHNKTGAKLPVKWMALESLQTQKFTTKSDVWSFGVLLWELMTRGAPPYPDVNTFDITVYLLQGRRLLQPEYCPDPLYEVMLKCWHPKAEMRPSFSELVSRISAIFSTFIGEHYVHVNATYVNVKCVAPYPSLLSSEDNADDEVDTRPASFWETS

[7] = molecular target: T1, Ephrin type-A receptor 3 (Homo sapiens) (UniProt P29320); assay: Inhibition of human EPHA3 using poly[Glu:Tyr] (4:1) as substrate at 1 uM in presence of 32P-ATP by Hotspot assay relative to control; values are per cent of control
T1 sequence (whole entry): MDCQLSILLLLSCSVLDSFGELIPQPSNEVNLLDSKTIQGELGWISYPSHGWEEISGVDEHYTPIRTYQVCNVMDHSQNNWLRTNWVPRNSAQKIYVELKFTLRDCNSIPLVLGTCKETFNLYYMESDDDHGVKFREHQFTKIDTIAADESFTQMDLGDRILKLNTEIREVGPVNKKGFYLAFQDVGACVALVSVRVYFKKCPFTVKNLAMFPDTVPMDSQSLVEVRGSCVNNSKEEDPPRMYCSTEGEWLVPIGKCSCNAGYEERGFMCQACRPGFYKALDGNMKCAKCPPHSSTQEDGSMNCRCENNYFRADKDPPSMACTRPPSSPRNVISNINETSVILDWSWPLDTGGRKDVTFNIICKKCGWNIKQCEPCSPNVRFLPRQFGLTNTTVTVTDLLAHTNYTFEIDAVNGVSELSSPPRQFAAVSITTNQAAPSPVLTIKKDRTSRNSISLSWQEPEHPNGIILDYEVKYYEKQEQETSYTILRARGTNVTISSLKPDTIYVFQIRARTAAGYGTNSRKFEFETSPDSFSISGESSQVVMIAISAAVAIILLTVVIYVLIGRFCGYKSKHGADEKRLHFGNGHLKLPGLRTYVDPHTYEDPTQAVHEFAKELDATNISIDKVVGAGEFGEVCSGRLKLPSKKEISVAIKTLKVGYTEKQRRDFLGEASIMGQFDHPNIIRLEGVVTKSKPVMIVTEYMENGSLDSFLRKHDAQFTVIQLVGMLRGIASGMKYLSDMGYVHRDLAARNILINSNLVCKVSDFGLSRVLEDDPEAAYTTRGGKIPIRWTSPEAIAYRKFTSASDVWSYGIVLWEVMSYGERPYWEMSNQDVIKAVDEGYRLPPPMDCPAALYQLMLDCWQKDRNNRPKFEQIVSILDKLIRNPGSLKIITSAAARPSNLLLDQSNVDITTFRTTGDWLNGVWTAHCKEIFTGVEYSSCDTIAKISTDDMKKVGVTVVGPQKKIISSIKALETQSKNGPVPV

[8] = molecular target: T2, Serine/threonine-protein kinase Nek11 (Homo sapiens) (UniProt Q8NG66); assay: Inhibition of human NEK11 using myelin basic protein as substrate at 1 uM in presence of 32P-ATP by Hotspot assay relative to control; values are per cent of control
T2 sequence (whole entry): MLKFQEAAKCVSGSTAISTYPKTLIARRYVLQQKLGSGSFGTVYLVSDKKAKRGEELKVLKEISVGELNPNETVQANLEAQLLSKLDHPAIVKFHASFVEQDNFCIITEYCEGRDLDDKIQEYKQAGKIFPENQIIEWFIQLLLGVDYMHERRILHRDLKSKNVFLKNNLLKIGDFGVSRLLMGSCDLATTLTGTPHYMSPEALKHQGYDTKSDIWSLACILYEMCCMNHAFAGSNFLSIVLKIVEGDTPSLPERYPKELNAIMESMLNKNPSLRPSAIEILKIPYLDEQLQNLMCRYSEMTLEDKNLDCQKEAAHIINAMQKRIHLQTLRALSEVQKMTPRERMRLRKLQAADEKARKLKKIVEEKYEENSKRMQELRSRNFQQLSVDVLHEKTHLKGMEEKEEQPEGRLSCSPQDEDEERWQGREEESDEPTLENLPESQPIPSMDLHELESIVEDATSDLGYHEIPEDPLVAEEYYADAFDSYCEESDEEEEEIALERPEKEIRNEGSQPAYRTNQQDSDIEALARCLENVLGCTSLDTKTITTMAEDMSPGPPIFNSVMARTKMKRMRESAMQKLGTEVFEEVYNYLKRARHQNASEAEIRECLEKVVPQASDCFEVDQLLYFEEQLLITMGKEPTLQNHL

[9] = molecular target: Tyrosine-protein kinase FRK (Homo sapiens) (UniProt P42685); assay: Inhibition of human FRK/PTK5 using poly[Glu:Tyr] (4:1) as substrate at 1 uM in presence of 32P-ATP by Hotspot assay relative to control; values are per cent of control
Chain of Tyrosine-protein kinase FRK (Homo sapiens) (P42685 whole entry): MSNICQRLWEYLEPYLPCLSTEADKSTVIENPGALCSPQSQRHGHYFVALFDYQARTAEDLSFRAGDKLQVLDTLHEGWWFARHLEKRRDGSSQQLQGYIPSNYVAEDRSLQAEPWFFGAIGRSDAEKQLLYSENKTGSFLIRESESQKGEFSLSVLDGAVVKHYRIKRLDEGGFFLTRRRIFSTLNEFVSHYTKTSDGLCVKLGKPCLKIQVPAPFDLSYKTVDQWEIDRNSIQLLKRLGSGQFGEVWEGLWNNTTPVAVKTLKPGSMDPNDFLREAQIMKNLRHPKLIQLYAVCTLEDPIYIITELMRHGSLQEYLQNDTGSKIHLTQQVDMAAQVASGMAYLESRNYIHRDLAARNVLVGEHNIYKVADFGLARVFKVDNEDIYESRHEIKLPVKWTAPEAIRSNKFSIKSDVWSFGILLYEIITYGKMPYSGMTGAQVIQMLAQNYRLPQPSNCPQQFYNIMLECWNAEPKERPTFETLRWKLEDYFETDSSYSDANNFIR

[10] = molecular target: Serine/threonine-protein kinase MARK1 (Homo sapiens) (UniProt Q9P0L2); assay: Inhibition of human MARK1 using KKKVSRSGLYRSPSMPENLNRPR as substrate at 1 uM in presence of 32P-ATP by Hotspot assay relative to control; values are per cent of control

Chain of High affinity nerve growth factor receptor (Homo sapiens) (P04629 33-796 limits assumed): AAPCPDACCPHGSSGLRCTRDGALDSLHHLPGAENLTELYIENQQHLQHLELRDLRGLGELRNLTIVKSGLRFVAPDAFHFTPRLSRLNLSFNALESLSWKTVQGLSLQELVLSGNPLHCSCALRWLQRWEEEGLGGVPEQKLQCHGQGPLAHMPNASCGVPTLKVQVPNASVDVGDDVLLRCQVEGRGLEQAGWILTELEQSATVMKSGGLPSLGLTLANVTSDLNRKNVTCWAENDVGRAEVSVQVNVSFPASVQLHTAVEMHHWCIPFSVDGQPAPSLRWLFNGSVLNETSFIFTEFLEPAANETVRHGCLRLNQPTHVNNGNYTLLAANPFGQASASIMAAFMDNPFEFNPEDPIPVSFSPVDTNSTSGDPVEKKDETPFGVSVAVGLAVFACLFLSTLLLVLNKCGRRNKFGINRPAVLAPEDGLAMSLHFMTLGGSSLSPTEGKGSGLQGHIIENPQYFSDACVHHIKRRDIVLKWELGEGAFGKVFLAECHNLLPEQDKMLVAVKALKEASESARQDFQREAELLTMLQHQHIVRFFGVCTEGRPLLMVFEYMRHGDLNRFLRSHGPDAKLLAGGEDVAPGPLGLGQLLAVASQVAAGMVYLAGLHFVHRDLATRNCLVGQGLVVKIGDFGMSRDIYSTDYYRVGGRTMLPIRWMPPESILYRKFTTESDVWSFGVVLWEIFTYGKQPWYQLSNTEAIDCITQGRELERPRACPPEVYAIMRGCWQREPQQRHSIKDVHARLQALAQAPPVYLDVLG

| SMILES | inhibition [1] [%] | residual activity [2] [%] | residual activity [3] [%] | residual activity [4] [%] | residual activity [5] [%] | residual activity [6] [%] | residual activity [7] [%] | residual activity [8] [%] | residual activity [9] [%] | residual activity [10] [%] |
| --- | --- | --- | --- | --- | --- | --- | --- | --- | --- | --- |
| CNC(=O)c1ccc2c(c1)ncn2-c1ccc(CC(=O)OC(C)(C)C)cc1 | 79.5 | 95.3 | 16 | 98.5 | 95.4 | 92.4 | 82.7 | 102 | 90.8 | 96.2 |
| Cc1cc(-c2cnc(N)c3c(-c4ccc5scnc5c4)csc23)n(C)n1 | 84.7 | 92.9 | 48 | 82.4 | 74.7 | 76.8 | 80 | 97.3 | 65.3 | 103 |
| CC(C)S(=O)(=O)c1ccc2nccc(Nc3ccc4scnc4c3)c2c1 | 89.3 | 89.5 | 87.9 | 98.3 | 97.6 | 86.2 | 92 | 89.5 | 33.5 | 96.3 |
